Data from patent publication US20250163006A1, “New Coolants, and Preparations Containing Same” (Symrise AG, priority 2022, published 2025).

What follows are molecules tested against T1, human TRPM8 receptor (Homo sapiens, UniProt Q7Z2W7) (assay: Assay on TRPM8 modulators: Ca2+-sensitive dye (Fluo-4) fluorescence in HEK293-TRPM8 test cells). Conditions: HEK293 cells recombinantly expressing human TRPM8.
T1 construct: expressed in transfected cells; host or cells: HEK293, stably transfected, tetracycline-inducible expression
T1 sequence (Q7Z2W7 whole entry): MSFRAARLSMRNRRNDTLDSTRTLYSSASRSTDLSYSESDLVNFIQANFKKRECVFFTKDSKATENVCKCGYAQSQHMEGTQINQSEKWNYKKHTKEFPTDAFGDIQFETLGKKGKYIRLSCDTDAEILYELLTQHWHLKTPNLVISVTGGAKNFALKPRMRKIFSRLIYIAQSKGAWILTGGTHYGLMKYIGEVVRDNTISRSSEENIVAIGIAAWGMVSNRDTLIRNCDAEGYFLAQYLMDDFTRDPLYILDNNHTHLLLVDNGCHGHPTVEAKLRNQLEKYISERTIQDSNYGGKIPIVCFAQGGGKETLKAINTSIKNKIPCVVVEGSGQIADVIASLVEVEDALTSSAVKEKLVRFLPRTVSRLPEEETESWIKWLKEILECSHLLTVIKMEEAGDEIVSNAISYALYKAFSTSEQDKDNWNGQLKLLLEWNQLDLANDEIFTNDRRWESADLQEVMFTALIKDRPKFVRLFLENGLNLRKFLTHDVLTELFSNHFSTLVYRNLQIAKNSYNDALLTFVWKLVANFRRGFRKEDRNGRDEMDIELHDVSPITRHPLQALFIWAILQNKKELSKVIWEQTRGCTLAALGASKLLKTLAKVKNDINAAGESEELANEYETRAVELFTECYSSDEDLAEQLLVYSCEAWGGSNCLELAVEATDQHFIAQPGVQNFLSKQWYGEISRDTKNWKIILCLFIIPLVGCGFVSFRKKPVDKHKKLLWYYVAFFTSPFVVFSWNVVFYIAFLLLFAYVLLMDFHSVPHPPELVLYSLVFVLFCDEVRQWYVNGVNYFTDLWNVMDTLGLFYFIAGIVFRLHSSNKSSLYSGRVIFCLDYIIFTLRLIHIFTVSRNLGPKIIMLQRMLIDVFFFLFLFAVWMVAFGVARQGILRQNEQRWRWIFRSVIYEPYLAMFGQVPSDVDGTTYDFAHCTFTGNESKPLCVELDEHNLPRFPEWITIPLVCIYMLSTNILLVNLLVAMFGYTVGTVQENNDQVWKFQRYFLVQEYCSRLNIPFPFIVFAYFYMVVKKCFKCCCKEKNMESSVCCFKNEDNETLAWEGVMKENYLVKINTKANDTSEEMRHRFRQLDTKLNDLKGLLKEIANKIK
Format: cell-based
Set-up: relative TRPM8 activation: concentration or dose not given beside the values
Source text: The starting point for cloning the human TRPM8 receptor is an LnCaP cDNA bank. This is commercially available (e.g. BioChain, Hayward, USA) or can be produced from the andro gene-sensitive human prostate adenocarcinoma cell line LnCaP (e.g. ATCC, CRL1740 or ECACC, 891 1021 1) using standard kits.
The coding TRPM8 sequence (see e.g. http://www. ncbi.nlm.nih.gov/entrez/viewer.fcgi?db=nuccore&id=109689694) can be PCR-amplified and cloned using standard methods. The human TRPM8 gene isolated in this way was used to produce the plasmid plnd_M8. Alternatively, the TRPM8 gene can also be produced synthetically.
A stably transfected HEK293 cell line was produced as a test cell system using human TRPM8 DNA. Preference was given to HEK293, which offers the possibility of inducing TRPM8 expression using tetracycline via the plasmid introduced.
A test similar to the test already described in the literature by Behrendt H. J. et al, Br. J. Pharmacol. 141, 2004, 737-745, is performed. The agonization or antagonization of the receptor can be quantified using a Ca^2+-sensitive dye (e.g. FURA, Fluo-4 etc.). Agonists alone cause an increase in the Ca^2+ signal; antagonists cause a reduction in the Ca^2+ signal in the presence of e.g. menthol (detected in each case using the Fluo-4 dye, which has different fluorescence properties due to Ca^2+ ions).
First, a fresh culture of transformed HEK cells is prepared in cell culture flasks in the usual way. The HEK293-TRPM8 test cells are detached from the cell culture flasks using trypsin and 40,000 cells/well are seeded with 100 μl medium in 96-well plates (Greiner #655948 poly-D-lysine-coated). To induce the TRPM8 receptor, tetracycline is added to the growth medium (DMEM/HG, 10% FCS tetracycline-free, 4 mM L-glutamine, 15 μg/ml blasticidin, 100 μg/ml hygromycin B, 1 μg/ml tetracycline).
On the following day, the cells are loaded with Fluo-4AM dye and the test is performed. Proceed as follows: Addition of 100 μl/well staining solution Ca-4 kit (RB 141, Molecular Devices) to each 100 μl medium (DMEM/HG, 10% FCS tetracycline-free, 4 mM L-glutamine, 15 μg/ml blasticidin, 100 μg/ml hygromycin B, 1 μg/ml tetracycline).
Incubation in incubator, 30 minutes/37° C./5% CO2, 30 minutes/RT.
Preparation of the test substances (different concentrations in 200 μl HBSS buffer), as well as positive controls (different concentrations of menthol, icilin or lonomycin in 200 μl HBSS buffer) and negative controls (only 200 μl HBSS buffer) Addition of the test substances in quantities of 50 μl/well and measurement of the fluorescence change (e.g. in the assay device FLIPR, Molecular Devices or NovoStar, BMG) at 485 nm excitation, 520 nm emission, and evaluation of the potency of the different substances/concentrations and determination of the ECG. e.g. in the FLIPR assay device, Molecular Devices or NovoStar, BMG) at 485 nm excitation, 520 nm emission, and evaluation of the potency of the various substances/concentrations and determination of the EC50 values.
The test substances are used in triplicates in concentrations of 0.1-200 μM in the assay. Normally, the compounds are kept ready in DMSO solutions and diluted down to a maximum DMSO concentration of 2% for the assay.
The activity of the active substances in relation to activation of the TRPM8 channel is determined using the assay described. This is done in a concentration-dependent manner. For each active substance, 6 to 10 concentrations are measured as standard. A mathematical method (4-parameter or 5-parameter logistic curve fitting) can be used to determine the EC50 value as the inflection point of the sigmoidal curve from the activity values determined. These are standard biochemical methods that are familiar to experts.

Compound	relative TRPM8 activation [%]
COCCSc1nnc(-c2ccccc2)c(-c2ccccc2)n1 [Compound B-30, 3-(2-methoxyethyl-sulfanyl)-5,6-diphenyl-1,2,4-triazine]	41
CCCCSc1nnc(-c2ccccc2)c(-c2ccccc2)n1 [Compound B-31, 3-butylsulfanyl-5,6-diphenyl-1,2,4-triazine]	40
CC(Sc1nnc(-c2ccccc2)c(-c2ccccc2)n1)C(=O)NCC1CCCO1 (centres unmarked) [Compound B-32, 2-[(5,6-diphenyl-1,2,4-triazin-3-yl)sulfanyl]-N-(tetrahydrofuran-2-ylmethyl)propanamide]	37
CCC(=O)CSc1nnc(-c2ccccc2)c(-c2ccccc2)n1 [Compound B-33, 1-[(5,6-diphenyl-1,2,4-triazin-3-yl)sulfanyl]butan-2-one]	25
CNC(=O)C(C)Sc1nncc(-c2ccccc2)n1 (centres unmarked) [Compound B-34, N-methyl-2-[(5-phenyl-1,2,4-triazin-3-yl)sulfanyl]propanamide]	25
CN(C)CCSc1nnc(-c2ccccc2)c(-c2ccccc2)n1 [Compound B-36, 2-[(5,6-diphenyl-1,2,4-triazin-3-yl)sulfanyl]-N,N-dimethyl-ethanamine]	20
CCSc1nnc(-c2ccccc2)c(-c2ccccc2)n1 [Compound B-37, 3-ethylsulfanyl-5,6-diphenyl-1,2,4-triazine]	13
Cc1ccc(-c2nnc(SC(C)C(=O)N3CCCC3)nc2-c2ccc(C)cc2)cc1 (centres unmarked) [Compound B-38, 2-[[5,6-bis(p-tolyl)-1,2,4-triazin-3-yl]sulfanyl]-1-pyrrolidin-1-yl-propan-1-one]	11
CC(Sc1nnc(-c2ccccc2)c(-c2ccccc2)n1)C(=O)N(C)C1CCCCC1 (centres unmarked) [Compound B-39, N-cyclohexyl-2-[(5,6-diphenyl-1,2,4-triazin-3-yl)sulfanyl]-N-methyl-propanamide]	11
CNC(=O)C(C)Sc1nnc(-c2ccc(OC)cc2)c(-c2ccc(OC)cc2)n1 (centres unmarked) [Compound B-40, 2-[[5,6-bis(4-methoxyphenyl)-1,2,4-triazin-3-yl]sulfanyl]-N-methyl-propanamide]	9
COC(=O)Nc1nnc(-c2ccccc2)c(-c2ccccc2)n1 [Compound B-41, methyl N-(5,6-diphenyl-1,2,4-triazin-3-yl)carbamate]	8
CN(C)CCOc1nnc(-c2ccccc2)c(-c2ccccc2)n1 [Compound B-42, 2-[(5,6-diphenyl-1,2,4-triazin-3-yl)oxy]-N,N-dimethyl-ethanamine]	8
CNC(=O)CNc1nnc(-c2ccccc2)c(-c2ccccc2)n1 [Compound B-43, 2-[(5,6-diphenyl-1,2,4-triazin-3-yl)amino]-N-methyl-acetamide]	6
CC(Sc1nnc(-c2ccccc2)c(-c2ccccc2)n1)C(=O)O (centres unmarked) [Compound B-44, 2-[(5,6-diphenyl-1,2,4-triazin-3-yl)sulfanyl]propanoic acid]	5
CNC(=O)C(C)Sc1nnc(-c2ccc(O)cc2)c(-c2ccc(O)cc2)n1 (centres unmarked) [Compound B-45, 2-[[5,6-bis(4-hydroxyphenyl)-1,2,4-triazin-3-yl]sulfanyl]-N-methyl-propanamide]	5
OCCSc1nnc(-c2ccccc2)c(-c2ccccc2)n1 [Compound B-46, 2-[(5,6-diphenyl-1,2,4-triazin-3-yl)sulfanyl]ethanol]	5
CCC(=O)Nc1nnc(-c2ccccc2)c(-c2ccccc2)n1 [Compound B-47, N-(5,6-diphenyl-1,2,4-triazin-3-yl)propanamide]	4

Compound	relative TRPM8 activation [%]
CC(Sc1nnc(-c2ccccc2)c(-c2ccccc2)n1)C(=O)NCc1cccs1 (centres unmarked) [Compound B-48, 2-[(5,6-diphenyl-1,2,4-triazin-3-yl)sulfanyl]-N-(2-thienylmethyl) propanamide]	4
c1ccc(CSc2nnc(-c3ccccc3)c(-c3ccccc3)n2)cc1 [Compound B-49, 3-benzylsulfanyl-5,6-diphenyl-1,2,4-triazine]	3
c1ccc(-c2nnc(NCCC3CC3)nc2-c2ccccc2)cc1 [Compound B-50, N-(2-cyclopropylethyl)-5,6-diphenyl-1,2,4-triazin-3-amine]	3
c1ccc(-c2nnc(NC3COC3)nc2-c2ccccc2)cc1 [Compound B-51, N-(oxetan-3-yl)-5,6-diphenyl-1,2,4-triazin-3-amine]	3
CNC(=O)COc1nnc(-c2ccccc2)c(-c2ccccc2)n1 [Compound B-52, 2-[(5,6-diphenyl-1,2,4-triazin-3-yl)oxy]-N-methyl-acetamide]	3
O=C(COc1nnc(-c2ccccc2)c(-c2ccccc2)n1)NC1CC1 [Compound B-53, N-cyclopropyl-2-[(5,6-diphenyl-1,2,4-triazin-3-yl)oxy]acetamide]	2
OCC(O)CNc1nnc(-c2ccccc2)c(-c2ccccc2)n1 (centres unmarked) [Compound B-54, 3-[(5,6-diphenyl-1,2,4-triazin-3-yl)amino]propane-1,2-diol]	2
COCCNc1nnc(-c2ccccc2)c(-c2ccccc2)n1 [Compound B-55, N-(2-methoxyethyl)-5,6-diphenyl-1,2,4-triazin-3-amine]	2
NC(=O)Nc1nnc(-c2ccccc2)c(-c2ccccc2)n1 [Compound B-56, (5,6-diphenyl-1,2,4-triazin-3-yl)urea]	2
CNC(=O)C(C)Oc1nnc(-c2ccccc2)c(-c2ccccc2)n1 (centres unmarked) [Compound B-57, 2-[(5,6-diphenyl-1,2,4-triazin-3-yl)oxy]-N-methyl-propanamide]	2
OCCNc1nnc(-c2ccccc2)c(-c2ccccc2)n1 [Compound B-58, 2-[(5,6-diphenyl-1,2,4-triazin-3-yl)amino]ethanol]	1
CNC(=O)C(C)Sc1cnccn1 (centres unmarked) [Compound B-59, N-methyl-2-pyrazine-2-ylsulfanyl-propanamide]	1
CNC(=O)C(C)Sc1nnc(C)c(C)n1 (centres unmarked) [Compound B-60, 2-[(5,6-dimethyl-1,2,4-triazin-3-yl)sulfanyl]-N-methyl-propanamide]	1
CCC(Sc1nnc(-c2ccc(OC)c(OC)c2)c(-c2ccc(OC)c(OC)c2)n1)C(=O)NC1CCCC1 (centres unmarked) [Compound B-61, 2-[[5,6-bis(3,4-dimethoxyphenyl)-1,2,4-triazin-3-yl]sulfanyl]-N-cyclopentyl-butanamide]	1
Cc1ccc(-c2nnc(SCC(=O)NC3CC3)nc2-c2ccc(C)cc2)cc1 [Compound B-62, 2-[[5,6-bis(p-tolyl)-1,2,4-triazin-3-yl]sulfanyl]-N-cyclopropyl-acetamide]	0
COC(=O)C(C)Nc1nnc(-c2ccccc2)c(-c2ccccc2)n1 (centres unmarked) [Compound B-63, methyl 2-[(5,6-diphenyl-1,2,4-triazin-3-yl)amino]propanoate]	−2
CSc1nnc(-c2ccccc2)c(-c2ccccc2)n1 [Compound B-64, 3-methylsulfanyl-5,6-diphenyl-1,2,4-triazine]	−3

Same assay, conditions: TRPM8 activation, HEK293-TRPM8 cells, 6 to 10 concentrations, logistic curve fitting; read-out: EC50 value

Compound	EC50 [µM]
CCNC(=O)C1CC(C)CCC1C(C)C [WS-3, L-menthanecarboxylic acid N-ethylamide, reference compound]	1.72
